Data published in patent US7388016B2, “Dibenzonaphthyridine derivatives and methods of use thereof” (Wyeth, priority 2005, dated 2008).

target: T1, PDK-1 (Homo sapiens, UniProt O15530); assay: In vitro PDK-1 inhibition ELISA assay (phosphorylation of SGK1 on Threonine 256); format: biochemical; conditions: PDK-1 phosphorylates 6xHIS tagged SGK1, 17 minutes reaction, chemiluminescent detection
T1 sequence (O15530 1-556): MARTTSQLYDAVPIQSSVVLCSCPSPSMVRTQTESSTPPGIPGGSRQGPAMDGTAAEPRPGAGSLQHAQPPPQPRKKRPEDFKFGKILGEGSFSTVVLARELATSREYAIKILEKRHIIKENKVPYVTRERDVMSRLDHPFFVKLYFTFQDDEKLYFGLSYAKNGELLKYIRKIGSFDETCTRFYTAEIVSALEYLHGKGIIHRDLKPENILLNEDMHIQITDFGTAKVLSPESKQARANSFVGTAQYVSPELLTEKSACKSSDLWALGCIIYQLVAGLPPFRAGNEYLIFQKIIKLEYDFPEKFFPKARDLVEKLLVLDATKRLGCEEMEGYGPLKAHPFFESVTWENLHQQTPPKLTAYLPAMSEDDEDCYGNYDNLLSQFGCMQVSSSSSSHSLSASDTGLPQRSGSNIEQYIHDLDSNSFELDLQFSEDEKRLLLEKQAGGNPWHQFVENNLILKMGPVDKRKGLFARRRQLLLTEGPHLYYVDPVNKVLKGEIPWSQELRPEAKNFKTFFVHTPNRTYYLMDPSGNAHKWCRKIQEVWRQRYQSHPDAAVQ
Procedure: The ability of illustrative Dibenzonaphthyridine Derivatives to inhibit PDK-1 in vitro can be determined using the ELISA assay as decribed in Kobayashi et al., Biochem. J. 339:319-328 (1999) and Park et al., EMBO J. 18:3024-3033 (1999).
In this in vitro assay, PDK-1 kinase phosphorylates SGK1 on Threonine 256. After 17 minutes, the reaction is quenched via the addition of urea. The 6×HIS tagged SGK1 is then bound to 96 well Ni-NTA HisSorb plates and the phosphorylated SGK1 is detected using rabbit derived anti-phospho SGK antibody as the primary antibody and HRP coupled anti-rabbit antibody as the secondary antibody. HRP is then detected using a Chemiluminescent Substrate.

SMILES	IC50 [nM]
COc1cc2ncc3c(OC)nc4c(C)c(OC)ccc4c3c2cc1OC [Compound I-1, 2,3,7,10-tetramethoxy-9-methyldibenzo[c,f]-2,7-naphthyridine]	23800
COc1cc2ncc3cnc4c(C)c(N)ccc4c3c2cc1OC [Compound I-3, 10,11-dimethoxy-4-methyldibenzo[c,f]-2,7-naphthyridin-3-amine]	2500
COc1cc2ncc3c(N)nc4ccccc4c3c2cc1OC [Ib-1, 10,11-dimethoxydibenzo[c,f]-2,7-naphthyridin-6-amine]	2400
COc1cc2ncc3c(N)nc4c(C)c(N)ccc4c3c2cc1OC [Ib-2, 10,11-dimethoxy-4-methyldibenzo[c,f]-2,7-naphthyridine-3,6-diamine]	93
CCOc1cc2ncc3c(N)nc4c(C)c(N)ccc4c3c2cc1OCC [Ib-3, 10,11-diethoxy-4-methyldibenzo[c,f]-2,7-naphthyridine-3,6-diamine]	273
COc1cc2c(cc1F)ncc1c(N)nc3c(C)c(N)ccc3c12 [Ib-4, 10-fluoro-11-methoxy-4-methyldibenzo[c,f]-2,7-naphthyridine-3,6-diamine]	388
COc1cc2c(cc1N(C)CCCN(C)C)ncc1c(N)nc3c(C)c(N)ccc3c12 [Ib-5, N^10-[3-(dimethylamino)propyl]-11-methoxy-N^10,4-dimethyldibenzo[c,f]-2,7-naphthyridine-3,6,10-triamine]	1010
COc1cc2c(cc1N(C)CCN(C)C)ncc1c(N)nc3c(C)c(N)ccc3c12 [Ib-6, N^10-[2-(dimethylamino)ethyl]-11-methoxy-N^10,4-dimethyldibenzo[c,f]-2,7-naphthyridine-3,6,10-triamine]	1170
COc1cc2c(cc1NCCCN1CCN(C)CC1)ncc1c(N)nc3c(C)c(N)ccc3c12 [Ib-7, 11-methoxy-4-methyl-N^10-[3-(4-methylpiperazin-1-yl)propyl]dibenzo[c,f]-2,7-naphthyridine-3,6,10-triamine]	555
COc1cc2c(cc1NCCCN1CCOCC1)ncc1c(N)nc3c(C)c(N)ccc3c12 [Ib-8, 11-methoxy-4-methyl-N^10-(3-morpholin-4-ylpropyl)dibenzo[c,f]-2,7-naphthyridine-3,6,10-triamine]	290
COc1cc2c(cc1NCCN1CCOCC1)ncc1c(N)nc3c(C)c(N)ccc3c12 [Ib-9, 11-methoxy-4-methyl-N^10-(2-morpholin-4-ylethyl)dibenzo[c,f]-2,7-naphthyridine-3,6,10-triamine]	296
COc1cc2c(cc1OCCN1CCOCC1)ncc1c(N)nc3c(C)c(N)ccc3c12 [Ib-10, 11-methoxy-4-methyl-10-(2-morpholin-4-ylethoxy)dibenzo[c,f]-2,7-naphthyridine-3,6-diamine]	57.5
COc1cc2c(cc1OCCCN1CCOCC1)ncc1c(N)nc3c(C)c(N)ccc3c12 [Ib-11, 11-methoxy-4-methyl-10-(3-morpholin-4-ylpropoxy)dibenzo[c,f]-2,7-naphthyridine-3,6-diamine]	121
COc1cc2c(cc1NCCCN1CCCC1)ncc1c(N)nc3c(C)c(N)ccc3c12 [Ib-12, 11-methoxy-4-methyl-N^10-(3-pyrrolidin-1-ylpropyl)dibenzo[c,f]-2,7-naphthyridine-3,6,10-triamine]	846
COc1cc2c(cc1NCCN1CCCC1)ncc1c(N)nc3c(C)c(N)ccc3c12 [Ib-13, 11-methoxy-4-methyl-N^10-(2-pyrrolidin-1-ylethyl)dibenzo[c,f]-2,7-naphthyridine-3,6,10-triamine]	3710
COc1cc2c(cc1NCCN(C)C)ncc1c(N)nc3c(C)c(N)ccc3c12 [Ib-14, N^10-[2-(dimethylamino)ethyl]-11-methoxy-4-methyldibenzo[c,f]-2,7-naphthyridine-3,6,10-triamine]	2410
COc1cc2c(cc1NCCCN(C)C)ncc1c(N)nc3c(C)c(N)ccc3c12 [Ib-15, N^10-[3-(dimethylamino)propyl]-11-methoxy-4-methyldibenzo[c,f]-2,7-naphthyridine-3,6,10-triamine]	972
COc1cc2c(cc1OCC1CCN(C)CC1)ncc1c(N)nc3c(C)c(N)ccc3c12 [Ib-16, 11-methoxy-4-methyl-10-[(1-methylpiperidin-4-yl)methoxy]dibenzo[c,f]-2,7-naphthyridine-3,6-diamine]	878

SMILES	IC50 [nM]
COCCOc1cc2ncc3c(N)nc4c(C)c(N)ccc4c3c2cc1OCCOC [Ib-17, 10,11-bis(2-methoxyethoxy)-4-methyldibenzo[c,f]-2,7-naphthyridine-3,6-diamine]	275
COc1cc2c(cc1OCCCl)ncc1c(N)nc3c(C)c(N)ccc3c12 [Ib-18, 10-(2-chloroethoxy)-11-methoxy-4-methyldibenzo[c,f]-2,7-naphthyridine-3,6-diamine]	42.5
COc1cc2c(cc1OCCN1CC1)ncc1c(N)nc3c(C)c(N)ccc3c12 [Ib-19, 10-(2-aziridin-1-ylethoxy)-11-methoxy-4-methyldibenzo[c,f]-2,7-naphthyridine-3,6-diamine]	482
COc1cc2c(cc1OCCN(C)C)ncc1c(N)nc3c(C)c(N)ccc3c12 [Ib-20, 10-[2-(dimethylamino)ethoxy]-11-methoxy-4-methyldibenzo[c,f]-2,7-naphthyridine-3,6-diamine]	377
COc1cc2c(cc1OCCCN(C)C)ncc1c(N)nc3c(C)c(N)ccc3c12 [Ib-21, 10-[3-(dimethylamino)propoxy]-11-methoxy-4-methyldibenzo[c,f]-2,7-naphthyridine-3,6-diamine]	196
COc1cc2c(cc1OCCN1CCCC1)ncc1c(N)nc3c(C)c(N)ccc3c12 [Ib-22, 11-methoxy-4-methyl-10-(2-pyrrolidin-1-ylethoxy)dibenzo[c,f]-2,7-naphthyridine-3,6-diamine]	261
CCN(CC)CCOc1cc2ncc3c(N)nc4c(C)c(N)ccc4c3c2cc1OC [Ib-23, 10-[2-(diethylamino)ethoxy]-11-methoxy-4-methyldibenzo[c,f]-2,7-naphthyridine-3,6-diamine]	347
COc1cc2c(cc1OCCc1ccccn1)ncc1c(N)nc3c(C)c(N)ccc3c12 [Ib-24, 11-methoxy-4-methyl-10-(2-pyridin-2-ylethoxy)dibenzo[c,f]-2,7-naphthyridine-3,6-diamine]	2860
COc1cc2c(cc1OCCC1CCCN1C)ncc1c(N)nc3c(C)c(N)ccc3c12 (stereo not drawn) [Ib-25, 11-methoxy-4-methyl-10-[2-(1-methylpyrrolidin-2-yl)ethoxy]dibenzo[c,f]-2,7-naphthyridine-3,6-diamine]	288
COc1cc2c(cc1OCCN1CCCCC1)ncc1c(N)nc3c(C)c(N)ccc3c12 [Ib-26, 11-methoxy-4-methyl-10-(2-piperidin-1-ylethoxy)dibenzo[c,f]-2,7-naphthyridine-3,6-diamine]	324
CCN(CC)CCCOc1cc2ncc3c(N)nc4c(C)c(N)ccc4c3c2cc1OC [Ib-27, 10-[3-(diethylamino)propoxy]-11-methoxy-4-methyldibenzo[c,f]-2,7-naphthyridine-3,6-diamine]	295
COc1cc2c(cc1OCCN1CCCCCC1)ncc1c(N)nc3c(C)c(N)ccc3c12 [Ib-28, 10-(2-azepan-1-ylethoxy)-11-methoxy-4-methyldibenzo[c,f]-2,7-naphthyridine-3,6-diamine]	350
COc1cc2c(cc1OCCCN1CCCCC1)ncc1c(N)nc3c(C)c(N)ccc3c12 [Ib-29, 11-methoxy-4-methyl-10-(3-piperidin-1-ylpropoxy)dibenzo[c,f]-2,7-naphthyridine-3,6-diamine]	243
COc1cc2c(cc1OCCN(C)CCN(C)C)ncc1c(N)nc3c(C)c(N)ccc3c12 [Ib-30, 10-{2-[[2-(dimethylamino)ethyl](methyl)amino]ethoxy}-11-methoxy-4-methyldibenzo[c,f]-2,7-naphthyridine-3,6-diamine]	281
COc1cc2c(cc1OCCc1c[nH]c3ccccc13)ncc1c(N)nc3c(C)c(N)ccc3c12 [Ib-31, 10-[2-(1H-indol-3-yl)ethoxy]-11-methoxy-4-methyldibenzo[c,f]-2,7-naphthyridine-3,6-diamine]	539
COc1cc2c(cc1OCCc1ccc(N(C)C)cc1)ncc1c(N)nc3c(C)c(N)ccc3c12 [Ib-32, 10-{2-[4-(dimethylamino)phenyl]ethoxy}-11-methoxy-4-methyldibenzo[c,f]-2,7-naphthyridine-3,6-diamine]	667
COc1cc2c(cc1OCCC1CCN(C)CC1)ncc1c(N)nc3c(C)c(N)ccc3c12 [Ib-33, 11-methoxy-4-methyl-10-[2-(1-methylpiperidin-4-yl)ethoxy]dibenzo[c,f]-2,7-naphthyridine-3,6-diamine]	384
COc1cc2c(cc1OCC1CCCN(C)C1)ncc1c(N)nc3c(C)c(N)ccc3c12 (stereo not drawn) [Ib-34, 11-methoxy-4-methyl-10-[(1-methylpiperidin-3-yl)methoxy]dibenzo[c,f]-2,7-naphthyridine-3,6-diamine]	1770
